Results on 41 compounds are retold here after patent publication US10428070B2, “Hepatitis B antiviral agents” (Enanta Pharmaceuticals, Inc., priority 2017, dated 2019).

The structures appear in SMILES notation.

For orientation: CC50 means the concentration at which the toxic effect on the cells reaches its halfway point. By EC50 is commonly meant the concentration that produces a half-maximal response.

Test system in one data set: not listed separately
Put plainly: Compound toxicity, total ATP levels (ATPLite). It counts as cell-based. To be noted: human, HepG2 cells, three days after compound addition, 50% reduction of total ATP levels (ATPLite) relative to no drug controls. Here is the method:
Compound toxicity is evaluated by seeding cells at 15,000 cells/well and treating with compound as described above.
`CCOC(=O)C1=C2C[C@@]3(CNS(=O)(=O)N3)CN2C(c2nccs2)=N[C@H]1c1ccc(F)cc1Cl` (relative stereo) [Example 15]: the CC50 at 3 days is above 25 µM.

Turning to `O=C1NC[C@]2(CC3=C(c4cnn(C(F)F)c4)[C@H](c4ccc(F)cc4Cl)N=C(c4nccs4)N3C2)N1` [Example 2], the CC50 at 3 days is above 25 µM.

`O=C1N[C@@]2(CO1)CC1=C(c3cnn(C(F)F)c3)[C@H](c3ccc(F)cc3Cl)N=C(c3nccs3)N1C2` [Example 3] registered a 50% cytotoxic concentration (CC50) at 3 days above 25 µM.

The compound `O=S1(=O)NC[C@@]2(CC3=C(c4cnn(C(F)F)c4)[C@H](c4ccc(F)cc4Cl)N=C(c4nccs4)N3C2)N1` [Example 10] showed a CC50 at 3 days above 25 µM.

Compound `O=C1N[C@@]2(CO1)CC1=C(c3ccn(C(F)F)n3)[C@H](c3ccc(F)cc3Cl)N=C(c3nccs3)N1C2` [Example 17] displayed a CC50 at 3 days above 25 µM.

`O=C1N[C@]2(CO1)CC1=C(c3ccn(C(F)F)n3)[C@H](c3ccc(F)cc3Cl)N=C(c3nccs3)N1C2` [Example 18] displayed a CC50 at 3 days above 25 µM.

`CN1C(=O)OC[C@@]12CC1=C(c3ccn(C(F)F)n3)[C@H](c3ccc(F)cc3Cl)N=C(c3nccs3)N1C2` [Example 19] gave a CC50 at 3 days above 25 µM.

Regarding `C=CCN1C[C@@]2(CC3=C(c4ccn(C(F)F)n4)[C@H](c4ccc(F)cc4Cl)N=C(c4nccs4)N3C2)OC1=O` [Example 43], the CC50 at 3 days is above 25 µM.

For the next data set, the system named is HBV. Put plainly: HepAD38 antiviral assay: reduction of viral product accumulation (virion DNA by qPCR, HBsAg or HBeAg by ELISA). It is filed as cell-based, hepatitis B virus. The note with it: HepAD38 cells; harvest five days after compound addition; 50% reduction of viral product accumulation relative to no drug controls. Here is the method:
Methods: HepAD38 cells are maintained as previously reported (Ladner et al, Antimicrob. Agents Chemother. 1997, […], 1715). Briefly, cells are passaged upon attaining confluency in DMEM/F12 media in the presence of 10% FBS, Penn/Strep, 250 μg/mL G418, and 1 μg/ml tetracycline. Novel compounds are screened by first washing cells three times with PBS to remove tetracycline, and plating in 96 well plates at 35,000 cells/well. Compounds dissolved in DMSO are then diluted 1:200 into wells containing cells. Five days after compound addition, material is harvested for analysis. For an extended 8 day analysis, cells are plated and treated as described above, but media and compound are refreshed on d2 and d5 post initial treatment.
On harvest day, virion DNA is obtained by lysing with Sidestep Lysis and Stabilization Buffer and then quantified via quantitative real time PCR. Commercially available ELISA kits are used to quantitate the viral proteins HBsAg (Alpco) or HbeAg (US Biological) by following the manufacturer's recommended protocol after diluting samples to match the linear range of their respective assays.
On the technique in general: Quantitative PCR measures a nucleic acid by following its amplification.
On to `O=C(O)CCN1C(=O)OC[C@@]12CC1=C(c3ccn(C(F)F)n3)[C@H](c3ccc(F)cc3Cl)N=C(c3nccs3)N1C2` [Example 22], for which the EC50 was above 0.4 µM.

Turning to `O=C(O)CCN1C(=O)OC[C@@]12CC1=C(c3ccn(C(F)F)n3)[C@H](c3ccc(F)cc3Cl)N=C(c3nccs3)N1C2` [Example 30], the EC50 was below 0.1 µM.

The same data set, now with this note: Hepatitis B virus, HePAD38, 120 h, HepAD38 cells; harvest five days after compound addition; 50% reduction of viral product accumulation relative to no drug controls.
With `CCOC(=O)C1=C2C[C@@]3(COC(=O)N3)CN2C(c2nccs2)=N[C@H]1c1ccc(F)cc1Cl` (relative stereo) [Example 11], the EC50 was below 0.1 µM.

In the case of `CCOC(=O)C1=C2C[C@]3(COC(=O)N3)CN2C(c2nccs2)=N[C@H]1c1ccc(F)cc1Cl` (relative stereo) [Example 12], the EC50 is below 0.1 µM.

Compound `CCOC(=O)C1=C2C[C@@]3(CNC(=O)N3)CN2C(c2nccs2)=N[C@H]1c1ccc(F)cc1Cl` (relative stereo) [Example 13] had an EC50 above 0.4 µM.

`CCOC(=O)C1=C2C[C@]3(CNC(=O)N3)CN2C(c2nccs2)=N[C@H]1c1ccc(F)cc1Cl` (relative stereo) [Example 14]: the EC50 is below 0.1 µM.

Take `CCOC(=O)C1=C2C[C@@]3(CNS(=O)(=O)N3)CN2C(c2nccs2)=N[C@H]1c1ccc(F)cc1Cl` (relative stereo) [Example 15]: the EC50 is below 0.1 µM.

For `CCOC(=O)C1=C2C[C@]3(CNS(=O)(=O)N3)CN2C(c2nccs2)=N[C@H]1c1ccc(F)cc1Cl` (relative stereo) [Example 16], the EC50 is below 0.1 µM.

`O=C1NC[C@@]2(CC3=C(c4cnn(C(F)F)c4)[C@H](c4ccc(F)cc4Cl)N=C(c4nccs4)N3C2)N1` [Example 1] showed an EC50 below 0.1 µM.

`O=C1NC[C@]2(CC3=C(c4cnn(C(F)F)c4)[C@H](c4ccc(F)cc4Cl)N=C(c4nccs4)N3C2)N1` [Example 2] yielded an EC50 below 0.1 µM.

In turn, `O=C1N[C@@]2(CO1)CC1=C(c3cnn(C(F)F)c3)[C@H](c3ccc(F)cc3Cl)N=C(c3nccs3)N1C2` [Example 3] registered an EC50 below 0.1 µM.

The compound `O=C1N[C@]2(CO1)CC1=C(c3cnn(C(F)F)c3)[C@H](c3ccc(F)cc3Cl)N=C(c3nccs3)N1C2` [Example 4] returned an EC50 below 0.1 µM.

As for `O=S1(=O)NC[C@]2(CC3=C(c4cnn(C(F)F)c4)[C@H](c4ccc(F)cc4Cl)N=C(c4nccs4)N3C2)N1` [Example 5], the EC50 is below 0.1 µM.

Compound `CS(=O)(=O)OC1CCCC12CC1=C(c3cnn(C(F)F)c3)[C@H](c3ccc(F)cc3Cl)N=C(c3nccs3)N1C2` (stereo partly shown) [Example 6] gave an EC50 of 0.1 to 0.4 µM.

Take `Fc1ccc([C@@H]2N=C(c3nccs3)N3CC4(CCCCC4)CC3=C2c2cnn(C(F)F)c2)c(Cl)c1` [Example 9]: the EC50 was below 0.1 µM.

On to `O=S1(=O)NC[C@@]2(CC3=C(c4cnn(C(F)F)c4)[C@H](c4ccc(F)cc4Cl)N=C(c4nccs4)N3C2)N1` [Example 10], for which the EC50 is below 0.1 µM.

`O=C1N[C@@]2(CO1)CC1=C(c3ccn(C(F)F)n3)[C@H](c3ccc(F)cc3Cl)N=C(c3nccs3)N1C2` [Example 17] displayed a 50% effective concentration (EC50) below 0.1 µM.

For the compound `O=C1N[C@]2(CO1)CC1=C(c3ccn(C(F)F)n3)[C@H](c3ccc(F)cc3Cl)N=C(c3nccs3)N1C2` [Example 18], the EC50 is below 0.1 µM.

As to `CN1C(=O)OC[C@@]12CC1=C(c3ccn(C(F)F)n3)[C@H](c3ccc(F)cc3Cl)N=C(c3nccs3)N1C2` [Example 19], the half-maximal effective concentration (EC50) was below 0.1 µM.

In turn, `CCN1C(=O)OC[C@@]12CC1=C(c3ccn(C(F)F)n3)[C@H](c3ccc(F)cc3Cl)N=C(c3nccs3)N1C2` [Example 20] returned an EC50 of 0.1 to 0.4 µM.

On to `COC(=O)CCN1C(=O)OC[C@@]12CC1=C(c3ccn(C(F)F)n3)[C@H](c3ccc(F)cc3Cl)N=C(c3nccs3)N1C2` [Example 21], for which the EC50 was above 0.4 µM.

`COC(=O)CN1C(=O)OC[C@@]12CC1=C(c3ccn(C(F)F)n3)[C@H](c3ccc(F)cc3Cl)N=C(c3nccs3)N1C2` [Example 23] came in with an EC50 of 0.1 to 0.4 µM.

Turning to `O=C(O)CN1C(=O)OC[C@@]12CC1=C(c3ccn(C(F)F)n3)[C@H](c3ccc(F)cc3Cl)N=C(c3nccs3)N1C2` [Example 24], the concentration giving a half-maximal response (EC50) is above 0.4 µM.

On to `C=CCN1C(=O)OC[C@@]12CC1=C(c3ccn(C(F)F)n3)[C@H](c3ccc(F)cc3Cl)N=C(c3nccs3)N1C2` [Example 25], for which the EC50 is 0.1 to 0.4 µM.

On to `CN1C(=O)OC[C@]12CC1=C(c3ccn(C(F)F)n3)[C@H](c3ccc(F)cc3Cl)N=C(c3nccs3)N1C2` [Example 26], for which the EC50 is below 0.1 µM.

For the compound `COC(=O)CN1C(=O)OC[C@]12CC1=C(c3ccn(C(F)F)n3)[C@H](c3ccc(F)cc3Cl)N=C(c3nccs3)N1C2` [Example 27], the EC50 is above 0.4 µM.

Turning to `O=C(O)CN1C(=O)OC[C@]12CC1=C(c3ccn(C(F)F)n3)[C@H](c3ccc(F)cc3Cl)N=C(c3nccs3)N1C2` [Example 28], the EC50 was above 0.4 µM.

`C=CCN1C(=O)OC[C@]12CC1=C(c3ccn(C(F)F)n3)[C@H](c3ccc(F)cc3Cl)N=C(c3nccs3)N1C2` [Example 31]: the EC50 was above 0.4 µM.

On to `COC(=O)CCCN1C(=O)OC[C@]12CC1=C(c3ccn(C(F)F)n3)[C@H](c3ccc(F)cc3Cl)N=C(c3nccs3)N1C2` [Example 32], for which the EC50 is below 0.1 µM.

As to `O=C(O)CCCN1C(=O)OC[C@]12CC1=C(c3ccn(C(F)F)n3)[C@H](c3ccc(F)cc3Cl)N=C(c3nccs3)N1C2` [Example 33], the half-maximal effective concentration (EC50) lay within 0.1 to 0.4 µM.

`O=C1OC[C@]2(CC3=C(c4ccn(C(F)F)n4)[C@H](c4ccc(F)cc4Cl)N=C(c4nccs4)N3C2)N1C[C@H](O)CO` [Example 34]: the EC50 was above 0.4 µM.

As for `O=C1OC[C@]2(CC3=C(c4ccn(C(F)F)n4)[C@H](c4ccc(F)cc4Cl)N=C(c4nccs4)N3C2)N1C[C@@H](O)CO` [Example 35], the EC50 was 0.1 to 0.4 µM.

For `C/C=C/CN1C(=O)OC[C@]12CC1=C(c3ccn(C(F)F)n3)[C@H](c3ccc(F)cc3Cl)N=C(c3nccs3)N1C2` [Example 36], the concentration giving a half-maximal response (EC50) was above 0.4 µM.

`C=CC1OC(=O)N[C@]12CC1=C(c3ccn(C(F)F)n3)[C@H](c3ccc(F)cc3Cl)N=C(c3nccs3)N1C2` (stereo partly shown) [Example 37] gave an EC50 of 0.1 to 0.4 µM.

`CC1OC(=O)N[C@]12CC1=C(c3ccn(C(F)F)n3)[C@H](c3ccc(F)cc3Cl)N=C(c3nccs3)N1C2` (stereo partly shown) [Example 38] had an EC50 below 0.1 µM.

`COCOCC1OC(=O)N[C@]12CC1=C(c3ccn(C(F)F)n3)[C@H](c3ccc(F)cc3Cl)N=C(c3nccs3)N1C2` (stereo partly shown) [Example 39] came in with an EC50 of 0.1 to 0.4 µM.

Turning to `O=C1N[C@]2(CC3=C(c4ccn(C(F)F)n4)[C@H](c4ccc(F)cc4Cl)N=C(c4nccs4)N3C2)C(CO)O1` (stereo partly shown) [Example 40], the EC50 is below 0.1 µM.

As to `O=C1NC[C@]2(CC3=C(c4ccn(C(F)F)n4)[C@H](c4ccc(F)cc4Cl)N=C(c4nccs4)N3C2)O1` [Example 41], the EC50 fell in the range of 0.1 to 0.4 µM.

As to `O=C1NC[C@@]2(CC3=C(c4ccn(C(F)F)n4)[C@H](c4ccc(F)cc4Cl)N=C(c4nccs4)N3C2)O1` [Example 42], the EC50 lay within 0.1 to 0.4 µM.

Compound `C=CCN1C[C@@]2(CC3=C(c4ccn(C(F)F)n4)[C@H](c4ccc(F)cc4Cl)N=C(c4nccs4)N3C2)OC1=O` [Example 43] registered an EC50 below 0.1 µM.

`CC1OC(=O)N[C@@]12CC1=C(c3ccn(C(F)F)n3)[C@H](c3ccc(F)cc3Cl)N=C(c3nccs3)N1C2` (stereo partly shown) [Example 44] gave an EC50 below 0.1 µM.
